# According to ChEMBL document CHEMBL1144768 (J Med Chem, 2008):
# Tests used:
# Carbonic anhydrase 2 [1] = biological target: T1, Carbonic anhydrase 2 (Homo sapiens, UniProt P00918)
# Description: Binding affinity to human carbonic anhydrase 2 in presence of 10 mM PIPES and 100 uM Na2SO4 at pH 7.0 by ThermoFluor method
# Carbonic anhydrase 2 [2] = biological target: T1, Carbonic anhydrase 2; remark: listed apart in the source
# Description: Binding affinity to human carbonic anhydrase 2 in presence of 10 mM PIPES and 200 uM NaCl at pH 7.0 by ThermoFluor method
# Carbonic anhydrase 2 [3] = biological target: T1, Carbonic anhydrase 2; remark: listed apart in the source
# Description: Binding affinity to human carbonic anhydrase 2 in presence of 10 mM HEPES and 100 uM Na2SO4 at pH 7.5 by ThermoFluor method
# Carbonic anhydrase 2 [4] = biological target: T1, Carbonic anhydrase 2; remark: listed apart in the source
# Description: Inhibition of human carbonic anhydrase 2 by 4-NPA hydrolysis assay
# Carbonic anhydrase 2 [5] = biological target: T1, Carbonic anhydrase 2; remark: listed apart in the source
# Description: Binding affinity to human carbonic anhydrase 2 in presence of 10 mM PIPES without Na+ at pH 7.0 by ThermoFluor method
# Carbonic anhydrase 2 [6] = biological target: T1, Carbonic anhydrase 2; remark: listed apart in the source
# Description: Binding affinity to human carbonic anhydrase 2 in presence of 10 mM HEPES without Na+ at pH 7.5 by ThermoFluor method
# [7] = Dissociation constant, pKa of the compound; type: physicochemical
Structure (SMILES),Kd (Carbonic anhydrase 2 [1]) [µM],Kd (Carbonic anhydrase 2 [2]) [µM],Kd (Carbonic anhydrase 2 [3]) [µM],Ki (Carbonic anhydrase 2 [4]) [µM],Kd (Carbonic anhydrase 2 [5]) [µM],Kd (Carbonic anhydrase 2 [6]) [µM],pKa [7]
CC1(C)O[C@H]2[C@@H]3OCO[C@@H]3CO[C@@]2(CNS(N)(=O)=O)O1,> 57,> 57,> 57,300,> 57,> 57,–
CC1(C)O[C@@H]2[C@@H](CO[C@@]3(COS(N)(=O)=O)OC(C)(C)O[C@@H]23)O1 [TOPIRAMATE],–,–,–,–,–,–,8.7
CC1(C)O[C@@H]2[C@@H](CO[C@@]3(CNS(N)(=O)=O)OC(C)(C)O[C@@H]23)O1,–,–,–,–,–,–,10.7
